For experiment [1], the target named is T1, Human Neuropeptide Y1 Receptors (Homo sapiens, UniProt P25929).
T1 construct: 50 μL SK-N-MC preparation containing 50 μg/tube membrane protein; host or cells: SK-N-MC human neuroblastoma cells (membranes)
T1 sequence (P25929 1-384): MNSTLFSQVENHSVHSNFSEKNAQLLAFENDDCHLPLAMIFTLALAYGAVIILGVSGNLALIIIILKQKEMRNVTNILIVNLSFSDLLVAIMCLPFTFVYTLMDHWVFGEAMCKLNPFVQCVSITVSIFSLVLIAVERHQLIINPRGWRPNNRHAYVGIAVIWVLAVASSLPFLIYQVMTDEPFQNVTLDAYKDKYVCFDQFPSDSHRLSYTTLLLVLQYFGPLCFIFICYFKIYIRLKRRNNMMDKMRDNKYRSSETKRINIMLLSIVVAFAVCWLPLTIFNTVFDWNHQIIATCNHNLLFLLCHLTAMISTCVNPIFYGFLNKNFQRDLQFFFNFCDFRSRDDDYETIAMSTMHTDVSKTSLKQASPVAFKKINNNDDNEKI
The experiment in a line: Receptor binding: inhibition of [^125 I]Peptide YY binding to human neuropeptide Y1 receptors (SK-N-MC membranes). The method, then:
The compounds of Formula I are valuable neuropeptide Y1 antagonists. The compounds of Formula I were tested for their ability to bind to the neuropeptide Y1 receptor subtype as measured by their inhibition of [^125 I]Peptide YY to human NPY1 receptors.
Human neuroblastoma cells, SK-N-MC, obtained from American Type Culture Collection were grown in Dulbecco's modified Eagle medium (Gibco) containing 10% fetal bovine serum and 100 units per mL/100 μg/mL penicillin/streptomycin (Gibco). After cells were confluent, growth media was replaced with fresh media and cells were allowed to continue growing for an additional 24 hours. Cells were then harvested in a buffer consisting of the following: 25 mM Tris(hydroxymethyl)amino methane (Tris), pH 7.4, 6 mM MgCl2, 250 μg/mL bacitracin, 250 μg/mL aprotinin, 250 μg/mL leupeptin, 250 μg/mL 4-(2-aminoethyl)-benzenesulfonylfluoride hydrochloride (Peflabloc) (Pentapharm AG). Growth media was removed and cells were lifted from the flasks with Dulbecco's phosphate buffered saline (D-PBS) containing 0.02% ethylenediaminetetraacetic acid (EDTA). Cells were pelleted and homogenized using a polytron, and broken membranes were pelleted by centrifugation at 18,000 rpm for 10 minutes at 4° C. The pelleted membranes were resuspended in the above buffer and frozen at […].
D-PBS (Gibco) pH 7.4, containing 0.5 g/L bacitracin and […] bovine serum albumin (BSA), was used in the preparation of compound and radiolabel. Each assay tube consisted of the following: […] of compound or buffer, 100 μL[^125 I]-PYY (Peptide YY) (30 pM), and 50 μL SK-N-MC preparation containing 50 μg/tube membrane protein for a total volume of 250 μL/tube. Non-specific binding was defined by the addition of 300 nM final concentration of neuropeptide Y. After addition of all reagents, tubes were shaken while incubating for 60 minutes at room temperature. The assay was terminated by filtering through a Whatman GF/C filter previously saturated with 0.1% polyethylenimine in 10 mM Tris, pH 7.5 containing 0.1% BSA. Filters were punched from the filter mat, placed in tubes, and counted for 1 minute using a gamma counter. The Ki was determined using the Graph PAD data analysis software program.

Experiment [2] concerns rats. The following applies: administration into the central nervous system; cited from earlier work.
[3] abbreviates: 30 pM [^125 I]-PYY, SK-N-MC membranes, 60 minutes, room temperature, pH 7.4, read-out: Inhibition of [^125 I]Peptide YY Binding to Human Neuropeptide Y1 Receptors Ki.

Read-outs that look alike come from different tables or passages of the source.

Broadly, the Ki is a measure of affinity in units of concentration, obtained from inhibition or displacement. With `Nc1cc(S(=O)(=O)c2c(Cl)cccc2Cl)c([N+](=O)[O-])c2cccnc12` [Example 23, 6-(2,6-Dichloro-benzenesulfonyl)-5-nitro-quinolin-8-ylamine], the Ki in experiment [1] (setting [3]) was found to be 273 nM.

In the case of `Cc1cccc(C)c1S(=O)(=O)c1cc(N)c2ncccc2c1[N+](=O)[O-]` [Example 14, 6-(2,6-Dimethyl-benzenesulfonyl)-5-nitro-quinolin-8-ylamine], the Ki in experiment [1] (setting [3]) stood at 295 nM.

For the compound `Nc1cc(S(=O)(=O)c2cccc(Cl)c2)c([N+](=O)[O-])c2cccnc12` [Example 15, 6-(3-Chloro-benzenesulfonyl)-5-nitro-quinolin-8-ylamine], the Ki in experiment [1] (setting [3]) amounted to 892 nM.

Turning to `COc1ccccc1S(=O)(=O)c1cc(N)c2ncccc2c1[N+](=O)[O-]` [Example 21, 6-(2-Methoxy-benzenesulfonyl)-5-nitro-quinolin-8-ylamine], the Ki in experiment [1] (setting [3]) was 490 nM.

In the case of `Nc1cc(S(=O)(=O)c2ccc3ccccc3c2)c([N+](=O)[O-])c2cccnc12` [Example 5, 6-(Naphthalene-2-sulfonyl)-5-nitro-quinolin-8-ylamine], the Ki in experiment [1] (setting [3]) is 1200 nM.

Regarding `Nc1cc(S(=O)(=O)c2ccccc2C(F)(F)F)c([N+](=O)[O-])c2cccnc12` [Example 29, 5-Nitro-6-(2-trifluoromethyl-benzenesulfonyl)-quinolin-8-ylamine], the Ki in experiment [1] (setting [3]) amounted to 84 nM.

As for `Nc1cc(S(=O)(=O)c2ccc([N+](=O)[O-])cc2)c([N+](=O)[O-])c2cccnc12` [Example 8, 5-Nitro-6-(4-nitro-benzenesulfonyl)-quinolin-8-ylamine], in experiment [1], the Ki worked out at 1000 nM.

`Cc1cccc(S(=O)(=O)c2cc(N)c3ncccc3c2[N+](=O)[O-])c1` [Example 9, 5-Nitro-6-(toluene-3-sulfonyl)-quinolin-8-ylamine]: the inhibition constant (Ki) in experiment [1] (setting [3]) is 373 nM.

Turning to `Nc1cc(S(=O)(=O)c2ccccc2Cl)c([N+](=O)[O-])c2cccnc12` [Example 13, 6-(2-Chloro-benzenesulfonyl)-5-nitro-quinolin-8-ylamine], in experiment [1] (setting [3]), the inhibition constant Ki amounted to 93 nM.

As to `Cc1ccc(C)c(S(=O)(=O)c2cc(N)c3ncccc3c2[N+](=O)[O-])c1` [Example 6, 6-(2,5-Dimethyl-benzenesulfonyl)-5-nitro-quinolin-8-ylamine], in experiment [1] (setting [3]), the Ki stood at 148 nM.

Turning to `Nc1cc(S(=O)(=O)c2ccccc2)c([N+](=O)[O-])c2cccnc12` [Example 1, 6-Benzenesulfonyl-5-nitro-quinolin-8-ylamine], in experiment [1] (setting [3]), the Ki stood at 297 nM.

With `CC(C)c1cccc(C(C)C)c1S(=O)(=O)c1cc(N)c2ncccc2c1[N+](=O)[O-]` [Example 28, 6-(2,6-Diisopropyl-benzenesulfonyl)-5-nitro-quinolin-8-ylamine], the Ki in experiment [1] (setting [3]) worked out at 48 nM.

Turning to `Nc1cc(S(=O)(=O)c2cc(Cl)ccc2Cl)c([N+](=O)[O-])c2cccnc12` [Example 30, 6-(2,5-Dichloro-benzenesulfonyl)-5-nitro-quinolin-8-ylamine], the Ki in experiment [1] (setting [3]) was found to be 283 nM.

As for `Nc1cc(S(=O)(=O)c2ccccc2Br)c([N+](=O)[O-])c2cccnc12` [Example 24, 6-(2-Bromo-benzenesulfonyl)-5-nitro-quinolin-8-ylamine], the Ki in experiment [1] (setting [3]) was 234 nM.

Consider `CC(=O)Nc1ccccc1S(=O)(=O)c1cc(N)c2ncccc2c1[N+](=O)[O-]` [Example 25, N-[2-(8-Amino-5-nitro-quinoline-6-sulfonyl)-phenyl]-acetamide], for which the inhibition constant (Ki) in experiment [1] (setting [3]) was found to be 590 nM.

Take `Nc1cc(S(=O)(=O)c2cccc3ccccc23)c([N+](=O)[O-])c2cccnc12` [Example 20, 6-(Naphthalene-1-sulfonyl)-5-nitro-quinolin-8-ylamine]: the Ki in experiment [1] (setting [3]) came to 46 nM.

On to `CCc1ccccc1S(=O)(=O)c1cc(N)c2ncccc2c1[N+](=O)[O-]` [Example 18, 6-(2-Ethyl-benzenesulfonyl)-5-nitro-quinolin-8-ylamine], for which the Ki in experiment [1] (setting [3]) was determined as 129 nM.

Turning to `CC(C)(C)c1ccc(S(=O)(=O)c2cc(N)c3ncccc3c2[N+](=O)[O-])cc1` [Example 7, 6-(4-tert-Butyl-benzenesulfonyl)-5-nitro-quinolin-8-ylamine], the Ki in experiment [1] (setting [3]) stood at 3200 nM.

Take “NPY: Neuropeptide Y (NPY), involved in the control of feeding in mammals; agonist in the cAMP assay”: the effect on feeding result in experiment [2] is reported as “dramatic increase in feeding”.

On to `Cc1ccccc1S(=O)(=O)c1cc(N)c2ncccc2c1[N+](=O)[O-]` [Example 12, 5-Nitro-6-(toluene-2-sulfonyl)-quinolin-8-ylamine], for which, in experiment [1] (setting [3]), the inhibition constant (Ki) was 119 nM.

In the case of `CC(C)(C)c1ccccc1S(=O)(=O)c1cc(N)c2ncccc2c1[N+](=O)[O-]` [Example 31, 6-(2-tert-Butyl-benzenesulfonyl)-5-nitro-quinolin-8-ylamine], in experiment [1] (setting [3]), the Ki is 1400 nM.

As to `Nc1cc(S(=O)(=O)c2ccc(Cl)cc2)c([N+](=O)[O-])c2cccnc12` [Example 2, 6-(4-Chloro-benzenesulfonyl)-5-nitro-quinolin-8-ylamine], the inhibition constant Ki in experiment [1] (setting [3]) was 1750 nM.

Turning to `COc1ccc(S(=O)(=O)c2cc(N)c3ncccc3c2[N+](=O)[O-])cc1` [Example 3, 6-(4-Methoxy-benzenesulfonyl)-5-nitro-quinolin-8-ylamine], in experiment [1] (setting [3]), the Ki stood at 1140 nM.

Consider `Nc1cc(S(=O)(=O)c2ccccc2F)c([N+](=O)[O-])c2cccnc12` [Example 27, 6-(2-Fluoro-benzenesulfonyl)-5-nitro-quinolin-8-ylamine], for which the Ki in experiment [1] (setting [3]) worked out at 58 nM.

As for `Cc1ccc(S(=O)(=O)c2cc(N)c3ncccc3c2[N+](=O)[O-])c(C)c1` [Example 22, 6-(2,4-Dimethyl-benzenesulfonyl)-5-nitro-quinolin-8-ylamine], the inhibition constant Ki in experiment [1] (setting [3]) was 222 nM.

For `N#Cc1ccc(S(=O)(=O)c2cc(N)c3ncccc3c2[N+](=O)[O-])cc1` [Example 11, 4-(8-Amino-5-nitro-quinoline-6-sulfonyl)-benzonitrile], the Ki in experiment [1] (setting [3]) was 854 nM.

Regarding `Nc1cc(S(=O)(=O)c2cccc(Cl)c2Cl)c([N+](=O)[O-])c2cccnc12` [Example 26, 6-(2,3-Dichloro-benzenesulfonyl)-5-nitro-quinolin-8-ylamine], the Ki in experiment [1] (setting [3]) came to 93 nM.

As to `CC(C)c1ccccc1S(=O)(=O)c1cc(N)c2ncccc2c1[N+](=O)[O-]` [Example 19, 6-(2-Isopropyl-benzenesulfonyl)-5-nitro-quinolin-8-ylamine], in experiment [1] (setting [3]), the Ki was 48 nM.

As for `Cc1ccc(S(=O)(=O)c2cc(N)c3ncccc3c2[N+](=O)[O-])cc1` [Example 4, 5-Nitro-6-(toluene-4-sulfonyl)-quinolin-8-ylamine], in experiment [1] (setting [3]), the Ki was 594 nM.

Consider `Nc1cc(S(=O)(=O)c2ccc(O)cc2)c([N+](=O)[O-])c2cccnc12` [Example 10, 4-(8-Amino-5-nitro-quinoline-6-sulfonyl)-phenol], for which the Ki in experiment [1] (setting [3]) came out at 136 nM.

With `COc1cccc(S(=O)(=O)c2cc(N)c3ncccc3c2[N+](=O)[O-])c1` [Example 17, 6-(3-Methoxy-benzenesulfonyl)-5-nitro-quinolin-8-ylamine], in experiment [1] (setting [3]), the Ki came out at 311 nM.

`Nc1cc(S(=O)(=O)c2ccc(F)cc2)c([N+](=O)[O-])c2cccnc12` [Example 16, 6-(4-Fluoro-benzenesulfonyl)-5-nitro-quinolin-8-ylamine]: in experiment [1] (setting [3]), the Ki is 603 nM.

These data come from patent US5552411A, “Sulfonylquinolines as central nervous system and cardiovascular agents” (Warner-Lambert Company, priority 1995, dated 1996).
